Converted amounts (≈) assume the structure as drawn.
Tests used:
A. laidlawii PG8 = experiment: Anti-mycoplasmal activity (MIC), agar-dilution method; assay type: cell-based; settings: Acholeplasma laidlawii; agar dilution; A. laidlawii PG8; read-out: MIC
Experimental: (§1) The minimum growth inhibitory concentrations (MIC; μg/ml) of the test chemicals were measured by the agar-dilution method.
(§2) (1) Preparation of a mycoplasma suspension for inoculation
(§3) A stored frozen suspension of mycoplasma (0.2 to 0.3 ml) was inoculated in 2 to 3 ml of a preculture medium to be described later. It was serially diluted tenfold until the dilution ratio reached 10,000 times. These diluted solutions were cultivated at 37° C. for 2 to 7 days. A culture having the highest dilution ratio was selected from those cultures in which a color change of the media was noted as a result of mycoplasma growth. It was diluted to 100 times with the preculture medium to prepare a mycoplasma suspension for inoculation.
(§4) The following preculture media were used.
For Mycoplasma pneumoniae and Acholeplasma laidlawii, Chanock liquid medium containing 0.5% glucose (pH 7.8) [Library of Bacteriology 2, "Procedures for Isolation and Identification of Human, Animal and Plant Mycoplasmas", edited by Japanese Society for Bacteriology, page 8 (1982), Saikon Publishing Co.] was used.
(§5) (2) Preparation of agar plates containing the test chemicals
(§6) A 1,000 μg/ml aqueous solution of each test chemical was prepared (a difficultly-soluble chemical was dissolved by adding an equimolar amount of sodium hydroxide; the same applies hereinafter). The solution was used as a base solution and its twofold serial dilutions were prepared. The diluted solutions were pipetted on plastic petri dishes each in an amount of 1 ml. The Chanock agar medium (for Mycoplasma hyorhinis, 0.5% mucin was further added) described at page 9 of the above cited "Procedures for Isolation and Identification of Human, Animal and Plant Mycoplasmas" was heated and kept at 55° C. and put in an amount of 9 ml in each of the petri dishes containing the test chemicals and fully mixed with the test chemicals to prepare agar plates containing the test chemicals.
(§7) The mycoplasma suspension for inoculation prepared by the procedure described in section (1) was inoculated in an amount of about 3 microliters on each of the chemical-containing agar plates by means of a Cathra-replicator (3 mm pin). The plates on which Mycoplasma pneumoniae, Mycoplasma arginini, and Acholeplasma laidlawii and Mycoplasma hyorhinis were inoculated were tightly packed in a plastic bag together with the plasic petri dishes including water-immersed absorbent cotton. Mycoplasma pneumoniae was aerobically cultivated at 37° C. under highly humid conditions for 7 days; and Mycoplasma arginini and Acholeplasma laidlawii, for 2 days. The other mycoplasma species were cultivated anaerobically for 2 days by using a GasPak anaerobic system (BBL). After the cultivation, growth of mycoplasma were observed under an OLYMPUS microscope (20-100 X). The lowest concentration of the test chemical at which no growth of mycoplasma was noted is defined as MIC.

mycoplasma [1] = experiment: Activity of eliminating artificially contaminated mycoplasma from L-929 cells, Test Example 3 as a whole; assay type: cell-based; settings: for minimal effective concentration: Mycoplasma, L929, 96 h, L-929 cells, 4 days of treatment, read-out: effective concentration for eliminating mycoplasma contamination
Experimental: (§8) Animal cells, experimentally contaminated by mycoplasma, were cultivated for 4 days in a medium containing the test chemical and then sub-cultivated in a medium to which the test chemical was not added in order to determine whether the mycoplasma re-grew (re-contamination).
(§9) (1) Preparation of mycoplasma-contaminated cells
(§10) The mycoplasmas described in Table 3 were each pre-cultivated as in Test Example 1, (1). Two milliliters of the cultures were centifuged at 1,500×g for 30 minutes to separate the mycoplasmas. The isolated mycoplasmas were suspended in 2 ml of 10%-FBS-MEM medium (Eagle's minimum essential medium supplemented with 10% fetal bovine serum and 100 U/ml of penicillin G).
(§11) Separately, mouse fibroblast cells L-929 was suspended in 10%-FBS-MEM medium so that their density became 2.5×10^4 /ml. Four milliliters of the suspension was put in a petri dish (diameter 6 cm) for tissue culture including two circular cover glasses (diameter 1.8 cm), and then 1 ml of the mycoplasma suspension described above was added. The mixture was incubated at 37° C. in 5% CO2 humidified atmosphere for 3 days, and then sub-cultivated twice in order to obtain mycoplasma-contaminated cells. Mycoplasma-contamination was confirmed by the highly specific DNA-fluorochromic staining method (the above cited "Procedures for Isolation and identification of Human, Animal and Plant Mycoplasmas", pages 95-97).
(§12) (2) Experiment of eliminating mycoplasma contamination
(§13) Mycoplasma-contaminated L-929 cells were cultivated as described in the preceding section. A 1,000 μg/ml aqueous solution of a test chemical was prepared, and diluted to predetermined concentrations with Eagle's minimum essential medium. The diluted solutions were added to the culture medium. Two petri dishes were used for each concentration of the test chemical, and two circular cover glasses were put in one of them for examination of mycoplasma. No cover glass was put in the other petri dish, and it was used for subcultivation. Cultivation in the test chemical-containing medium was carried out for 4 days, and thereafter, the cultivation was continued for 3 weeks in a drug-free medium. Medium replacement was effected every 3 to 4 days, and subcultivation was carried out once a week. Examination for mycoplasma contamination was performed on the 4th and 7th days, and thereafter every week. The mycoplasmas were detected by the highly specific DNA-fluorochromic staining method.

mycoplasma [2] = experiment: Anti-mycoplasmal activity (MIC, MMC), liquid dilution method, all species of Table 2 together; assay type: cell-based; settings: in words
Experimental: The minimum growth inhibitory concentration (MIC, μg/ml) and minimum mycoplasmacidal concentration (MMC, μg/ml) of test chemicals were measured by the liquid dilution method. The method of measuring MIC in this example differs from that used in Test Example 1.
A 1,000 μg/ml aqueous solution of a test chemical was prepared, and diluted to 5 times with a preculture medium. The dilution (200 μg/ml) was serially diluted twofold with the same medium in a 8-well reservoir. Fifty microliters of each diluted solution was distributed in the wells of a microplate. A well to which no test chemical was added was used as a control.
A mycoplasma suspension for inoculation prepared as in Test Example 1 was pipetted in an amount of 50 microliters to each of the wells. The microplates were sealed by a plate seal, shaken by a micromixer, and cultivated at 37° C. for 5 days. […] At this time, 3 microliters of the liquid culture was inoculated in drug-free Chanock agar medium by using a Cathra-replicator. The liquid culture and the agar medium were further cultivated at 37° C. for 3 days (anaerobically in the case of M. orale, and aerobically in the case of A. laidlawii and M. arginini). MIC and MMC were determined from the results of observation on the 5th day. MIC was defined as the lowest concentration of the test chemical at which growth of mycoplasma in the drug-containing liquid medium was not noted, and MMC, as that in the drug-free agar medium.

M. arginini G230 = experiment: Anti-mycoplasmal activity (MIC), agar-dilution method; assay type: cell-based, Mycoplasma arginini; settings: Mycoplasmopsis arginini; agar dilution; M. arginini G230; read-out: MIC
Experimental: as §1, §2, §3, §4
(§14) For other mycoplasma species, Chanock liquid medium (pH 6.8) containing 0.2% arginine was used.
as §5, §6, §7

A. laidlawii PG-8 = experiment: Activity of eliminating artificially contaminated mycoplasma from L-929 cells; assay type: cell-based, Acholeplasma laidlawii
Experimental: as §8, §9, §10, §11, §12, §13

M. salivarium PG20 = experiment: Anti-mycoplasmal activity (MIC), agar-dilution method; assay type: cell-based, Mycoplasma salivarium; settings: Metamycoplasma salivarium; agar dilution; M. salivarium PG20; read-out: MIC
Experimental: as §1, §2, §3, §4, §14, §5, §6, §7

SMILES | MIC (A. laidlawii PG8) [µg/mL] | minimal effective concentration (mycoplasma [1]; both species) [µg/mL] | MIC compared with MMC (mycoplasma [2]; Table 2) | mode of action at the MIC (mycoplasma [2]; Table 2) | MIC (M. arginini G230) [µg/mL] | mycoplasma elimination (A. laidlawii PG-8; 0.2 μg/ml, day 0) | mycoplasma elimination (A. laidlawii PG-8; 0.2 μg/ml, day 4) | mycoplasma elimination (A. laidlawii PG-8; 0.2 μg/ml, day 7) | mycoplasma elimination (A. laidlawii PG-8; 0.2 μg/ml, day 14) | mycoplasma elimination (A. laidlawii PG-8; 0.2 μg/ml, day 28) | MIC (M. salivarium PG20) [µg/mL] | also measured
CC1CN(c2c(F)c(N)c3c(=O)c(C(=O)O)cn(C4CC4)c3c2F)CCN1 (centres unmarked) [Compound 1] | 0.1 (≈ 0.264 µM) | 0.39 | identical with their MMC values | act mycoplasmacidally at the MICs | 0.1 (≈ 0.264 µM) | + | + | + | + | + | 0.2 (≈ 0.529 µM) | activity of eliminating mycoplasma contamination (mycoplasma [1]; in words): also showed the activity of eliminating mycoplasma contamination; effective concentration relative to compound A (mycoplasma [1]; in words): twice that of compound A; mycoplasma elimination (A. laidlawii PG-8; 0.39 μg/ml, day 0): +; mycoplasma elimination (A. laidlawii PG-8; 0.39 μg/ml, day 4): -; mycoplasma elimination (A. laidlawii PG-8; 0.39 μg/ml, day 7): -; mycoplasma elimination (A. laidlawii PG-8; 0.39 μg/ml, day 14): -; mycoplasma elimination (A. laidlawii PG-8; 0.39 μg/ml, day 28): -
CN(C)c1ccc(O)c2c1C[C@H]1C[C@H]3[C@H](N(C)C)C(O)=C(C(N)=O)C(=O)[C@@]3(O)C(O)=C1C2=O [Compound 3, minocycline] | 0.2 (≈ 0.437 µM) |  |  | acts bacteriostatically, and not mycoplasmacidally, at its MIC | 0.39 (≈ 0.852 µM) |  |  |  |  |  | 0.1 (≈ 0.219 µM) | elimination of mycoplasma and re-growth after removal (mycoplasma [1]; 12.5 μg/ml, 4 days, then drug removed, in words): the cells were mycoplasma-negative after 4 days of cultivation, but when the chemical was removed thereafter, re-growth of mycoplasma was observed; mycoplasma elimination (A. laidlawii PG-8; 12.5 μg/ml, day 0): +; mycoplasma elimination (A. laidlawii PG-8; 12.5 μg/ml, day 4): -; mycoplasma elimination (A. laidlawii PG-8; 12.5 μg/ml, day 7): +; mycoplasma elimination (A. laidlawii PG-8; 12.5 μg/ml, day 14): +; mycoplasma elimination (A. laidlawii PG-8; 12.5 μg/ml, day 28): +
NCC1CN(c2c(F)c(N)c3c(=O)c(C(=O)O)cn(C4CC4)c3c2F)CCO1 (centres unmarked) [Compound A, 5-amino-7-(2-aminomethylmorpholino)-1-cyclopropyl-6,8-difluoro-1,4-dihydro-4-oxoquinoline-3-carboxylic acid] | 0.0125 (≈ 0.0317 µM) | 0.2 | identical with their MMC values | act mycoplasmacidally at the MICs | 0.05 (≈ 0.127 µM) | + | - | - | - | - | 0.1 (≈ 0.254 µM) | elimination of mycoplasma and re-growth after removal (mycoplasma [1]; 0.2 μg/ml, both species, in words): gave a mycoplasma negative in 4 days from the start of cultivation, and when thereafter subcultivation was performed in the absence of the compound A, no re-growth of mycoplasmas were noted; anti-mycoplasmal activity compared with control compounds (mycoplasma [2]; Table 2): better than those of the control compounds; mycoplasmacidal activity, overall (mycoplasma [2]; summary): excellent mycoplasmacidal activity; mycoplasma elimination (A. laidlawii PG-8; 0.1 μg/ml, day 0): +; mycoplasma elimination (A. laidlawii PG-8; 0.1 μg/ml, day 4): -; mycoplasma elimination (A. laidlawii PG-8; 0.1 μg/ml, day 7): +; mycoplasma elimination (A. laidlawii PG-8; 0.1 μg/ml, day 14): +; mycoplasma elimination (A. laidlawii PG-8; 0.1 μg/ml, day 28): +

— US5051419A, “Prevention or elimination of mycoplasma contamination of animal or plant cell cultures” (Dainippon Pharmaceutical Co., Ltd., priority 1988, dated 1991)
